# Tests used:
# [1] = tested on: human lung adenocarcinoma cells (Calu-3); test: Microarray analysis of apoptosis-regulating genes in Calu-3 cells; assay type: cell-based; set-up: key: ‘+’ and ‘−’ indicates genes over- and under-expressed, respectively; ‘+’ and ‘−’ indicates genes over- and under-expressed, respectively
# Method: Cell culture. Human bronchial epithelial adenocarcinoma cell line (Calu-3) was obtained from ATCC (Manassas, Va., USA) and cultured in 50 cm^2 plastic culture flasks in modified eagle's medium (MEM) supplemented with 10% fetal bovine serum, glutamine (4 mM; Sigma-Aldrich, Canada) and penicillin (100 U mL-1)-streptomycin (100 μg mL-1) solution (Sigma-Aldrich, Canada). Cells were cultured at an initial density of 10^6 cells/mL, and fresh media was added on day 3. Cells were grown in an incubator at 37° C., 5% CO2, and 100% humidity.
# Chemical treatments. Calu-3 cells were treated with different concentrations (0-100 μM) of cyclolinopeptide A (“CLA”), cyclolinopeptide C (“CLC”) or cyclolinopeptide E (“CLE”). Camptothecin (Sigma-Aldrich, Canada; 4 μM) and dimethylsulfoxide (DMSO) were used as positive and negative controls, respectively. Camptothecin is useful as a positive control in studies testing the effect of certain compounds on apoptosis in cancer cell lines. Camptothecin is a cytotoxic quinoline alkaloid that inhibits the DNA enzyme topoisomerase I (topo I) and has shown remarkable anti-cancer activity. Two analogs of camptothecin have been approved and are used in cancer chemotherapy.
# Current microarray design platforms facilitate the design of gene expression arrays for analysis of a compound of interest and its impact on a large number of known genes. Cyclolinopeptide A, cyclolinopeptide C and cyclolinopeptide E were therefore used in microarray analysis to determine their effect on under- and over-expression of genes involved in the regulation of apoptosis in human lung adenocarcinoma cells (Table 2).
# heat shock gene HSP70A = test: Expression of heat shock gene HSP70A in nematode cultures exposed to cyclolinopeptide-A; assay type: in vivo, Caenorhabditis elegans; conditions: two hours exposure, C. elegans
# Text: FIG. 17 is a chart showing the effects of cyclolinopeptide A on the expression of the HSP70A gene in Caenorhabditis elegans. Bars on the columns represent standard deviations. Letters above the bars designate significant differences determined by data analysis using one-way analysis of variance with pair-wise multiple comparisons were done by the Tukey test; and
# The following example relates to the use of selected purified individual cyclolinopeptides recovered and processed as disclosed herein for modulating the expression of stress genes. Nematode cultures (Caenorhabditus elegans) were exposed for two hours to one of DMSO (negative control), 0.1 μM cyclolinopeptide-A, 1.0 μM cyclolinopeptide-A, 10.0 μM cyclolinopeptide-A, and 100.0 μM cyclolinopeptide-A, and then cultured to assess the effects of cyclolinopeptide-A on the expression of the heat shock gene HSP70A by C. elegans. The control treatment was unamended culture medium.
Substance,BCL-2 gene up- or down-regulated [1],CASP10 gene up- or down-regulated [1],CDEB gene up- or down-regulated [1],CIDEA gene up- or down-regulated [1],Fas gene up- or down-regulated [1],HRK gene up- or down-regulated [1],TNF gene up- or down-regulated [1],TP53BP2 gene up- or down-regulated [1],TP53 gene up- or down-regulated [1],increase in the production of the Hsp70A protein (heat shock gene HSP70A; 0.1 μM in culture media) [%],increase in the production of this heat shock protein (Hsp70A) (heat shock gene HSP70A; 1.0 μM in culture media) [fold],increase in the production of the Hsp70A protein (heat shock gene HSP70A; 10.0 μM in culture media) [%],BAK gene up- or down-regulated [1],FASLG gene up- or down-regulated [1]
cyclolinopeptide C [CLP-C],−,+,+,+,+,+,+,+,+,,,,,
cyclolinopeptide A [CLP-A],+,,+,,+,,+,+,+,30,3.5,30,+,+
cyclolinopeptide E [CLP-E],−,,+,+,+,+,+,+,,,,,,

# Source: patent publication US8383172B2, “Recovery of hydrophobic peptides from oils” (University of Saskatchewan, priority 2007, dated 2013)
